Test results published in patent publication US20240400577A1, “MODULATORS OF PROTEIN KINASES” (VIBLIOME THERAPEUTICS, LLC, priority 2021, published 2024).

Tests used:
Assay in all cases: Kinase panel enzymatic inhibition assay (Nanosyn)
Type in all cases: biochemical
p38b = target: T1, p38b (Homo sapiens, UniProt Q15759); details: compound 5 μM; ATP at Km; 30-minute pre-incubation
T1 construct: Nanosyn (contract laboratory that ran the panel)
Outline: (§1)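 Read-out is percent inhibition or IC50, obtained by mobility shift, ADP detection or time-resolved fluorescence detection. Each kinase was run with ATP at its Km, and compound at 5 μM was pre-incubated for 30 minutes.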

FGR = target: T2, FGR (Homo sapiens, UniProt P09769); details: compound 5 μM; ATP at Km; 30-minute pre-incubation
T2 construct: purchased Nanosyn (contract screening)
T2 sequence (P09769 whole entry): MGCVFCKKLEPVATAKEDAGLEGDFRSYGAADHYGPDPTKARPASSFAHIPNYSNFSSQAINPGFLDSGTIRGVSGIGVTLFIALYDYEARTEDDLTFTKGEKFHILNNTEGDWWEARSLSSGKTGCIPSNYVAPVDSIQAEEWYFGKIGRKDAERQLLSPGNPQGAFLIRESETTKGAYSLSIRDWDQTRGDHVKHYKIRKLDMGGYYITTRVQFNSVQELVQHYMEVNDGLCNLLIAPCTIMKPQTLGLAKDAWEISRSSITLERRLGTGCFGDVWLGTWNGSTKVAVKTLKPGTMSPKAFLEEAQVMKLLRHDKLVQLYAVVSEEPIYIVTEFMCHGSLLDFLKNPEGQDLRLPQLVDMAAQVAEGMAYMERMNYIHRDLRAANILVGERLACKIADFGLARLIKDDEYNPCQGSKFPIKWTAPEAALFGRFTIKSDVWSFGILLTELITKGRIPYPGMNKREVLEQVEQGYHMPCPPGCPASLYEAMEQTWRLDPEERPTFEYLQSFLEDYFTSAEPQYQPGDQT
Outline: as §1

DDR2 = target: T3, DDR2 (Homo sapiens, UniProt Q16832); details: ATP at Km, 30-minute pre-incubation; for inhibition at 5 µM: compound 5 μM; for IC50: read-out: kinase inhibition in terms of IC50, DDR2
T3 construct: purchased Nanosyn (contract screening)
T3 sequence (Q16832 22-855): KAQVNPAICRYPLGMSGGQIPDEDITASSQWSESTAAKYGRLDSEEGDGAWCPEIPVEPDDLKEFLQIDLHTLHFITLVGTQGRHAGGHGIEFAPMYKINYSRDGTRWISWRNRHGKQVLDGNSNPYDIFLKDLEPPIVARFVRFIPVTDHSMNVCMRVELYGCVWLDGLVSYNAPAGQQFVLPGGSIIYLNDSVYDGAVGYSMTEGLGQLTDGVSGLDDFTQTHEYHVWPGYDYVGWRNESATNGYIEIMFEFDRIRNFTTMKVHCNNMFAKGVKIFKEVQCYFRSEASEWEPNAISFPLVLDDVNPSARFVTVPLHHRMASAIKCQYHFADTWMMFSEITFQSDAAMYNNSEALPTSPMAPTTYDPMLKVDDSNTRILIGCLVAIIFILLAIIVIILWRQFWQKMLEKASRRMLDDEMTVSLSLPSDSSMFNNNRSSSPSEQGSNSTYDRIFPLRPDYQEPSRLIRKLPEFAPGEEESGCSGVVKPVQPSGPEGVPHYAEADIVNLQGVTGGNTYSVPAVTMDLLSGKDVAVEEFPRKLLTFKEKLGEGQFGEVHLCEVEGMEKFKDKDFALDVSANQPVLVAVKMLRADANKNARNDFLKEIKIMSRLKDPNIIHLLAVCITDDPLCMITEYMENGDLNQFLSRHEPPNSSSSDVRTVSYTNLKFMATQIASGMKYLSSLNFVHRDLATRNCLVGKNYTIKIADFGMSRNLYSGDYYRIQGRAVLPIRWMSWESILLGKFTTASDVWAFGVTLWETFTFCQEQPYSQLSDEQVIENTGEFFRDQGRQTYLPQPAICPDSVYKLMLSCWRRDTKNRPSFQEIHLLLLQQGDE
Outline: as §1

LYNb = target: T4, LYNb (Homo sapiens, UniProt P07948); details: compound 5 μM; ATP at Km; 30-minute pre-incubation
T4 construct: purchased Nanosyn (contract screening)
T4 sequence (P07948 1-491 isoform P07948-2): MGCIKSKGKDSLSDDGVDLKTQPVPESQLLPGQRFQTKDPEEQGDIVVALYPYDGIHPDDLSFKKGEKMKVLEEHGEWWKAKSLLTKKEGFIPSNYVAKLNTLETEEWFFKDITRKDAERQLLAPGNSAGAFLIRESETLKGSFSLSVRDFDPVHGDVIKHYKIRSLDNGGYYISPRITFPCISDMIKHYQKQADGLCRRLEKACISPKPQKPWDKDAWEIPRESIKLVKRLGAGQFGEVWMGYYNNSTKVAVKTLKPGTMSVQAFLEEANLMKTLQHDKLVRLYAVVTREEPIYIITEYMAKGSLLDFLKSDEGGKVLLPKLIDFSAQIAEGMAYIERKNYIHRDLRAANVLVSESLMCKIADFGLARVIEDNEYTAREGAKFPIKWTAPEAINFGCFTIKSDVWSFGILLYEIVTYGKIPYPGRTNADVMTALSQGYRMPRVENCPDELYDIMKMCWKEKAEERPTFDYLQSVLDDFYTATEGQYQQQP
Outline: as §1

SRC = target: T5, SRC (Homo sapiens, UniProt P12931); details: compound 5 μM; ATP at Km; 30-minute pre-incubation
T5 construct: Nanosyn (contract laboratory that ran the panel)
T5 sequence (P12931 whole entry): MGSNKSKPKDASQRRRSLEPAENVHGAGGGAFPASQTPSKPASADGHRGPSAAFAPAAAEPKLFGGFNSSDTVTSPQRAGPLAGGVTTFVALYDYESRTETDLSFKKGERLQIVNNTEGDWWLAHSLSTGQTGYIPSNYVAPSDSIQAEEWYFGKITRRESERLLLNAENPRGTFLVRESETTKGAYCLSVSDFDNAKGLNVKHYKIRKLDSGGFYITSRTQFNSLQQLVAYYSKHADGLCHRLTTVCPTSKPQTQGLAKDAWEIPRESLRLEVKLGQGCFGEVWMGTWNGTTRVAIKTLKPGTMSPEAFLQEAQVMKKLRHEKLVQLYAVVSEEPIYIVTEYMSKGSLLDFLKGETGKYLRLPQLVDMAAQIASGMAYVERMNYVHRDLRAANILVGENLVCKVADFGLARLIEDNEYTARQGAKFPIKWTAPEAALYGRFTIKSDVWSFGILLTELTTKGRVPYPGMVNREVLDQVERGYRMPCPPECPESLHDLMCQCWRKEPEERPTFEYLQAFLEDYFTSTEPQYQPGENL
Outline: as §1

SPHK2 = target: T6, SPHK2 (Homo sapiens, UniProt Q9NRA0); details: compound 5 μM; ATP at Km; 30-minute pre-incubation
T6 construct: Nanosyn (contract laboratory that ran the panel)
T6 sequence (Q9NRA0 1-654): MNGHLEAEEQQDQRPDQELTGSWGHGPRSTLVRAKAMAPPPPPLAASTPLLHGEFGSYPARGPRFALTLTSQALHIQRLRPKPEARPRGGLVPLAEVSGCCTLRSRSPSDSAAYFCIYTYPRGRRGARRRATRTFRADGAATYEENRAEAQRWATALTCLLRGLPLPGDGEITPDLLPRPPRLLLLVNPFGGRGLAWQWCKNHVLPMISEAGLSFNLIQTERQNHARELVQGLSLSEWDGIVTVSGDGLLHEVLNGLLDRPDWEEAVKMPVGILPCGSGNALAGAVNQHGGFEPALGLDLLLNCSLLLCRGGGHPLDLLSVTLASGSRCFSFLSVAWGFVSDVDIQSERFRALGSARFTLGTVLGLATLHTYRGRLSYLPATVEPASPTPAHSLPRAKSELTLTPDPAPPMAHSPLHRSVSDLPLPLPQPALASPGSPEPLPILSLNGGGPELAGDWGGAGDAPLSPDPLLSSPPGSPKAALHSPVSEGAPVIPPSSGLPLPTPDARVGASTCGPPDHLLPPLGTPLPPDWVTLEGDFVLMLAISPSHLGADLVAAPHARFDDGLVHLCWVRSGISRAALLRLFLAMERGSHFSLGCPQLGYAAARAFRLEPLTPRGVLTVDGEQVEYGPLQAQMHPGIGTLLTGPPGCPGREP
Outline: as §1

HGK = target: T7, HGK (Homo sapiens, UniProt O95819); details: compound 5 μM; ATP at Km; 30-minute pre-incubation
T7 construct: purchased Nanosyn (contract screening)
Outline: as §1

PDGFRa = target: T8, PDGFRa (Homo sapiens, UniProt P16234); details: compound 5 μM; ATP at Km; 30-minute pre-incubation
T8 construct: Nanosyn (contract laboratory that ran the panel)
T8 sequence (P16234 24-1089): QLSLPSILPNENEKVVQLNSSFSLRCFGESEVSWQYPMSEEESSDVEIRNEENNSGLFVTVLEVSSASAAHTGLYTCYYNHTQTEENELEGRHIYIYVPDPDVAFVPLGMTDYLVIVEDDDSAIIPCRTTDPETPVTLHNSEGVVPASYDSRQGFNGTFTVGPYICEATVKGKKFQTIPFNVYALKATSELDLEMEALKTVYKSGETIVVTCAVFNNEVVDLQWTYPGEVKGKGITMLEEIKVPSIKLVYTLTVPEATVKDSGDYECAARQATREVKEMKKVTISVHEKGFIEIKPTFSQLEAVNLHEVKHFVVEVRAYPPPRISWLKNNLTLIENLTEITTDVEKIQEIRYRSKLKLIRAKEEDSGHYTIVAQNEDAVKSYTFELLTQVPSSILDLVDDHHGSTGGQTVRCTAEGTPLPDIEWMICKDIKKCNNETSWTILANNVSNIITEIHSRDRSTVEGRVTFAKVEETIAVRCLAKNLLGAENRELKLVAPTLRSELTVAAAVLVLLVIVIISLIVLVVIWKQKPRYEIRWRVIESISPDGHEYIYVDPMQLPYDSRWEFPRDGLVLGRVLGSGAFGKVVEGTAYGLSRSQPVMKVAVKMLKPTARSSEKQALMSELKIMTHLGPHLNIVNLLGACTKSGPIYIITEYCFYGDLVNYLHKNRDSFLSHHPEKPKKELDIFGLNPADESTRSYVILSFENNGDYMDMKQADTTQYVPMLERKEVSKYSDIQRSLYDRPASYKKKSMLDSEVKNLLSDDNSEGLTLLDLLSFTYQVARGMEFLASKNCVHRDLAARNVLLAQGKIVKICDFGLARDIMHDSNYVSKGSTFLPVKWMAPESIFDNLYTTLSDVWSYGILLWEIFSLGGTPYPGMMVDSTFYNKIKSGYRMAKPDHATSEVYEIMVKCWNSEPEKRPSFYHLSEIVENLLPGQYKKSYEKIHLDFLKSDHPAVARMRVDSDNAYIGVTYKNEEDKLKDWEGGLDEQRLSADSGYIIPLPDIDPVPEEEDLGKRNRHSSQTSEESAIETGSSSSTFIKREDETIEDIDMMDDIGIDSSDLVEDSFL
Outline: as §1

YES = target: T9, YES (Homo sapiens, UniProt P07947); details: compound 5 μM; ATP at Km; 30-minute pre-incubation
T9 construct: Nanosyn (contract laboratory that ran the panel)
T9 sequence (P07947 whole entry): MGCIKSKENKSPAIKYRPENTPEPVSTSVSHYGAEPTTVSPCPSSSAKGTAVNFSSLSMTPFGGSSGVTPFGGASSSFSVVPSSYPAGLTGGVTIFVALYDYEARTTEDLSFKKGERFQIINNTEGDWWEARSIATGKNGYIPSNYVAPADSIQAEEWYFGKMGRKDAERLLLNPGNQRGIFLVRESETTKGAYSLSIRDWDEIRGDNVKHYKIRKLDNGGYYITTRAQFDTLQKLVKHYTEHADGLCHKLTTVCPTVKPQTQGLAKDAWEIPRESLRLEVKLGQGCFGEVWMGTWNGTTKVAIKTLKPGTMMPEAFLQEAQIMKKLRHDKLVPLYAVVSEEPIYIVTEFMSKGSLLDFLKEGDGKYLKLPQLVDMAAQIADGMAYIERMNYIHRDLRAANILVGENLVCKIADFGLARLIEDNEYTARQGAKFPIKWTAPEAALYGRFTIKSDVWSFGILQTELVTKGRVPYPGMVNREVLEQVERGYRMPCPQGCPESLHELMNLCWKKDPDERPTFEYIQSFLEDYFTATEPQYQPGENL
Outline: as §1

BRAF = target: T10, BRAF (Homo sapiens, UniProt P15056); details: compound 5 μM; ATP at Km; 30-minute pre-incubation
T10 construct: purchased Nanosyn (contract screening)
T10 sequence (P15056 whole entry): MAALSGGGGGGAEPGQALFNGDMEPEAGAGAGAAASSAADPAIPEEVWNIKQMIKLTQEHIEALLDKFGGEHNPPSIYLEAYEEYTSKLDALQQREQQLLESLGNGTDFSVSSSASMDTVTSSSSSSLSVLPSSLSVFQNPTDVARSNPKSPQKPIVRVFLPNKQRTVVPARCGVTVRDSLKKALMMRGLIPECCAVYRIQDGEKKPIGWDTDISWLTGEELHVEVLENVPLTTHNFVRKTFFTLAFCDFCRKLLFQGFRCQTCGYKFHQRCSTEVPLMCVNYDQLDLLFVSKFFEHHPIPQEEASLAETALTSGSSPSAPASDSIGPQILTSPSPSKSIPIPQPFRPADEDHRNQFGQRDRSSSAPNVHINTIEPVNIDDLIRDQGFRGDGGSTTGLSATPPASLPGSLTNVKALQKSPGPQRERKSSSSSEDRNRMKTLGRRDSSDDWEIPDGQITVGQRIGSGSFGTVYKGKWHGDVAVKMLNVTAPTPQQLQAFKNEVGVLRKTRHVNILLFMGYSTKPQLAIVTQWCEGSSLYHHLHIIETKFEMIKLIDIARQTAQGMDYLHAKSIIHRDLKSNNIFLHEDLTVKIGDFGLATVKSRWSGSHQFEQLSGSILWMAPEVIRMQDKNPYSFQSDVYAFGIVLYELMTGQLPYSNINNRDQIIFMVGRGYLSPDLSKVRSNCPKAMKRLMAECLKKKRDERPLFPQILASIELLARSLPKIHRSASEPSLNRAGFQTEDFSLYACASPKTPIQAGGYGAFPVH
Outline: as §1

BLK = target: T11, BLK (Homo sapiens, UniProt P51451); details: compound 5 μM; ATP at Km; 30-minute pre-incubation
T11 construct: purchased Nanosyn (contract screening)
Outline: as §1

SGK2 = target: T12, SGK2 (Homo sapiens, UniProt Q9HBY8); details: compound 5 μM; ATP at Km; 30-minute pre-incubation
T12 construct: Nanosyn (contract laboratory that ran the panel)
T12 sequence (Q9HBY8 1-367): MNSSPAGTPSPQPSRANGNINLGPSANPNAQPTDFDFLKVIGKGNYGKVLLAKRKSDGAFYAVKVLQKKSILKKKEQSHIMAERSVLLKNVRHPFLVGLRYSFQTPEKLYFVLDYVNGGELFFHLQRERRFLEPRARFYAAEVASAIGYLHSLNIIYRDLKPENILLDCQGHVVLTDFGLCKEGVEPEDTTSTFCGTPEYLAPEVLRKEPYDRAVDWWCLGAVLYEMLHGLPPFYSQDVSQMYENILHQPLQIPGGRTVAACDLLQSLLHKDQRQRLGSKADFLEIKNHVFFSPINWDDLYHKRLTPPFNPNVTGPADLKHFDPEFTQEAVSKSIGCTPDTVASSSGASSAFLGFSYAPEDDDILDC
Outline: as §1

MNK2 = target: T13, MNK2 (Homo sapiens, UniProt Q9HBH9); details: compound 5 μM; ATP at Km; 30-minute pre-incubation
T13 construct: Nanosyn (contract laboratory that ran the panel)
T13 sequence (Q9HBH9 whole entry): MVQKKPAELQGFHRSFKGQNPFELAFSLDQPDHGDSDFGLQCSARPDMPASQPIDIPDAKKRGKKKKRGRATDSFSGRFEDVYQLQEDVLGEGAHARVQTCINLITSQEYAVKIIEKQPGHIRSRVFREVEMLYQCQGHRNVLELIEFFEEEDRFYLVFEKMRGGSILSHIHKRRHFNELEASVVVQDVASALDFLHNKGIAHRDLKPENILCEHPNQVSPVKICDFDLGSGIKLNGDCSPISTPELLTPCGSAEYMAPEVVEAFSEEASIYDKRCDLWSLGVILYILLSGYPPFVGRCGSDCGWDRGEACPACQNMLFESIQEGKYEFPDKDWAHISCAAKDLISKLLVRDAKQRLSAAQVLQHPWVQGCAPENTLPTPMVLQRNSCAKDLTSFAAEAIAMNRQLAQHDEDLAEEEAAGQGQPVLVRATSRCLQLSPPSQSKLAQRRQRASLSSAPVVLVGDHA
Outline: as §1

T1 sequence (Q15759 whole entry): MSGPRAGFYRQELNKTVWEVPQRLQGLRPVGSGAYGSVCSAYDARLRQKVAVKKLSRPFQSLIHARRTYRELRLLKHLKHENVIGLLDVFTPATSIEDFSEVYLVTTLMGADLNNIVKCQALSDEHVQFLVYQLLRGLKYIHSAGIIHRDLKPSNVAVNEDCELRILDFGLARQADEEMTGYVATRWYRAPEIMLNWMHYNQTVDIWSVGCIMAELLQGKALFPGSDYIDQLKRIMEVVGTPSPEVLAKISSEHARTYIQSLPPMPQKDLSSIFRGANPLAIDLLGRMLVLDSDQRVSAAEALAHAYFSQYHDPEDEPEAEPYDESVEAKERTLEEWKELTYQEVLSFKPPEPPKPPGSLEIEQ

| Structure (SMILES) | inhibition at 5 µM (p38b) | inhibition at 5 µM (FGR) | inhibition at 5 µM (DDR2) | inhibition at 5 µM (LYNb) | inhibition at 5 µM (SRC) | inhibition at 5 µM (SPHK2) | inhibition at 5 µM (HGK) | inhibition at 5 µM (PDGFRa) | inhibition at 5 µM (YES) | inhibition at 5 µM (BRAF) | inhibition at 5 µM (BLK) | inhibition at 5 µM (SGK2) | inhibition at 5 µM (MNK2) | IC50 (DDR2) |
| --- | --- | --- | --- | --- | --- | --- | --- | --- | --- | --- | --- | --- | --- | --- |
| Cc1ccc(NC(=O)c2cc(S(C)(=O)=O)n(-c3ccc(F)cc3)n2)cc1Nc1ccc2ncn(C)c(=O)c2c1 [Ex4, 1-(4-fluorophenyl)-N-(4-methyl-3-((3-methyl-4-oxo-3,4-dihydroquinazolin-6-yl)amino)phenyl)-5-(methylsulfonyl)-1H-pyrazole-3-carboxamide] | < 79% | < 79% | ≥ 95% | < 79% | < 79% | < 79% | < 79% | < 79% | < 79% | ≥ 95% | < 79% | < 79% | < 79% |  |
| Cc1ccc(NC(=O)c2cc([S+](C)[O-])n(-c3ccc(F)cc3)n2)cc1Nc1ccc2ncn(C)c(=O)c2c1 (stereo not drawn) [Ex5, 1-(4-fluorophenyl)-N-(4-methyl-3-((3-methyl-4-oxo-3,4-dihydroquinazolin-6-yl)amino)phenyl)-5-(methylsulfinyl)-1H-pyrazole-3-carboxamide] | 80 to 89% | < 79% | < 79% | 90 to 94% | < 79% | < 79% | < 79% | < 79% | < 79% | ≥ 95% | < 79% | < 79% | < 79% |  |
| Cc1ccc(NC(=O)c2cc([S+](C)[O-])n(-c3ccc(F)cc3)n2)cc1C#Cc1cnc2cccnn12 (stereo not drawn) [Ex6, 1-(4-fluorophenyl)-N-(3-(imidazo[1,2-b]pyridazin-3-ylethynyl)-4-methylphenyl)-5-(methylsulfinyl)-1H-pyrazole-3-carboxamide] | 80 to 89% | 80 to 89% | < 79% | ≥ 95% | 90 to 94% | < 79% | < 79% | ≥ 95% | 80 to 89% | ≥ 95% | 80 to 89% | 90 to 94% | < 79% |  |
| CNC(=O)c1cc(Oc2ccc(F)c(NC(=O)c3cc([S+](C)[O-])n(-c4ccc(F)cc4)n3)c2)ccn1 (stereo not drawn) [Ex7, 4-(4-fluoro-3-(1-(4-fluorophenyl)-5-(methylsulfinyl)-1H-pyrazole-3-carboxamido)phenoxy)-N-methylpicolinamide] | < 79% | < 79% | < 79% | < 79% | < 79% | < 79% | < 79% | < 79% | < 79% | 90 to 94% | < 79% | < 79% | < 79% |  |
| CSc1cc(C(=O)Nc2cc(Oc3ccnc(C(=O)NC4CNC4)c3)ccc2F)nn1-c1ccc(F)cc1 [Ex8, N-(azetidin-3-yl)-4-(4-fluoro-3-(1-(4-fluorophenyl)-5-(methylthio)-1H-pyrazole-3-carboxamido)phenoxy)picolinamide] | < 79% | < 79% | < 79% | < 79% | < 79% | < 79% | 80 to 89% | < 79% | < 79% | 90 to 94% | < 79% | < 79% | 80 to 89% |  |
| Cc1ccc(NC(=O)c2cc(S(C)(=O)=O)n(-c3ccc(F)cc3)n2)cc1-c1cc(OCCO)nc(N2CCOCC2)c1 [Ex9, 1-(4-fluorophenyl)-N-(3-(2-(2-hydroxyethoxy)-6-morpholinopyridin-4-yl)-4-methylphenyl)-5-(methylsulfonyl)-1H-pyrazole-3-carboxamide] | 80 to 89% | < 79% | 90 to 94% | < 79% | < 79% | < 79% | < 79% | < 79% | < 79% | ≥ 95% | < 79% | < 79% | < 79% |  |

Further lines, results first:

| inhibition at 5 µM (p38b) | inhibition at 5 µM (FGR) | inhibition at 5 µM (DDR2) | inhibition at 5 µM (LYNb) | inhibition at 5 µM (SRC) | inhibition at 5 µM (SPHK2) | inhibition at 5 µM (HGK) | inhibition at 5 µM (PDGFRa) | inhibition at 5 µM (YES) | inhibition at 5 µM (BRAF) | inhibition at 5 µM (BLK) | inhibition at 5 µM (SGK2) | inhibition at 5 µM (MNK2) | IC50 (DDR2) | Structure (SMILES) |
| --- | --- | --- | --- | --- | --- | --- | --- | --- | --- | --- | --- | --- | --- | --- |
| < 79% | < 79% | 80 to 89% | < 79% | < 79% | < 79% | < 79% | < 79% | < 79% | ≥ 95% | < 79% | < 79% | < 79% |  | Cc1ccc(NC(=O)c2cc([S+](C)[O-])n(-c3ccc(F)cc3)n2)cc1-c1cc(OCCO)nc(N2CCOCC2)c1 (stereo not drawn) [Ex10, 1-(4-fluorophenyl)-N-(3-(2-(2-hydroxyethoxy)-6-morpholinopyridin-4-yl)-4-methylphenyl)-5-(methylsulfinyl)-1H-pyrazole-3-carboxamide] |
|  |  |  |  |  |  |  |  |  |  |  |  |  | < 500 nM | COc1cc2nccc(Oc3ccc(NC(=O)c4cc(S(C)(=O)=O)n(-c5ccc(F)cc5)n4)c(F)c3)c2cc1OC [Ex71, N-(4-((6,7-dimethoxyquinolin-4-yl)oxy)-2-fluorophenyl)-1-(4-fluorophenyl)-5-(methylsulfonyl)-1H-pyrazole-3-carboxamide] |
|  |  |  |  |  |  |  |  |  |  |  |  |  | < 500 nM | COc1cc2nccc(Oc3ccc(NC(=O)c4cc(S(C)(=O)=O)n(-c5ccc(F)cc5)n4)cc3F)c2cc1OC [Ex73, N-(4-((6,7-dimethoxyquinolin-4-yl)oxy)-3-fluorophenyl)-1-(4-fluorophenyl)-5-(methylsulfonyl)-1H-pyrazole-3-carboxamide] |
